Values quoted from earlier work in patent publication US4324553A, “Hair dyeing compositions containing at least one 2,4-diamino-alkylbenzene as coupler” (L'Oreal, priority 1979, dated 1982).

System: Salmonella typhimurium (TA 1538 and TA 98)
Details: Salmonella typhimurium TA 1538 and TA 98, with S9 mix induced by Aroclor 1254; prior-art statement

SMILES | mutagenic activity as evaluated in the Ames test
CCc1ccc(N)cc1N [2,4-Diamino-ethylbenzene] | high mutagenic activity
Cc1ccc(N)cc1N [2,4-diaminotoluene] | very high mutagenic activity
